In patent US20200255436A1, “CORTICOTROPIN RELEASING FACTOR RECEPTOR ANTAGONISTS” (Spruce Biosciences, Inc., priority 2019, published 2020):
Values after ≈ are worked out from the molar mass of the structure shown. Like-named read-outs stand apart in the source and are kept apart here.

Assays:
[1] = Phase 1 safety and tolerability (Study 1 and Study 2); assay type: in vivo, human; conditions: healthy subjects
Source text: (§1) Study 1 was the first-in-human study that investigated the safety, tolerability, and PK of single-escalating doses of Compound 1, given orally, to healthy adult subjects. […] The data from this study were used for the selection of doses for Study 2.
The 2-part multiple-dose study, Study 2, determined the safety and tolerability of repeated daily doses of Compound 1 and investigated the effects on biomarkers of relevance for the treatment of alcohol dependence.
The safety of Compound 1 was evaluated in 2 Phase 1 studies in healthy adult volunteers (Study 1 and Study 2). In both studies, adverse events (AEs), clinical laboratory tests, vital signs (supine blood pressure and pulse rate), and electrocardiograms (ECGs) were evaluated. Overall, in Study 1, Compound 1 was well-tolerated.

[2] = Solubility in different aqueous media; assay type: physicochemical; conditions: for solubility at 24 h: thermodynamic from solid
[3] = Study 1: single escalating oral dose pharmacokinetics, fed and fasted; assay type: in vivo, human; conditions: for Cmax / Tmax / AUC(0-inf) / AUC(0-t) / Vd/F / half-life: human, plasma, po; for AUC(0-t): read-out: AUC0-tlast
Method: as §1
In Study 1, Compound 1 was administered to healthy adult subjects as a single PO dose of 2, 10, 50, 150, 400, or 800 mg in the fed state and 150 mg in the fasted state. Absorption occurred moderately late, achieving peak Cmax between 4 to 6 hours following dosing in the fed state.
When Compound 1 was given in the fed state, median time to reach maximum plasma concentration (Tmax) occurred between 4 and 6 hours.
As part of this single-dose escalation study, a food effect PK investigation was performed to examine Compound 1 exposures in both the fed and fasted states at the 150-mg dose level. A total of 6 subjects were administered 150 mg Compound 1 in each of these 2 dosing groups. Of these 6 subjects, 4 subjects received Compound 1 at the same dose in both fed and fasted states. […] Table 2 provides a summary of the PK parameters at the 150-mg dose level under both fed and fasted state conditions.
PK parameters AUC0-∞ and Cmax were analyzed separately for dose proportionality for Compound 1 from 50 to 800 mg when administered in the fed state. […] Dose proportionality across administered doses in the fed state could not be concluded on the basis of AUC0-∞ or Cmax.

[4] = Phase 2 study in adults with classic CAH: safety; assay type: in vivo, human; conditions: patients with CAH, 5-fold range of doses
Source text: Cohort A of the Phase 2 Study includes a 6-week, multiple-dose, dose escalation study of Compound 1 for the treatment of adults with classic CAH. After screening, eligible patients will be enrolled into a 6-week treatment period followed by a 4-week washout/safety follow-up period.
This cohort will be conducted in approximately 9 patients, who will receive Compound 1 daily for up to 6 weeks. Compound 1 will be administered as an oral daily dose. Patients will undergo titration of Compound 1 through three escalating dosage strengths at 2-week intervals. Patients will have overnight PK/PD assessments performed at baseline, which include an pre-dose overnight assessment and a post-dose overnight assessment for PK/PD following administration of the first dose. At the end of each 2-week dosing period, patients will return for single overnight visits for steady-state PK/PD assessments. A follow-up outpatient visit will occur 30 days after their last dose. Upon completion of the initial cohort (Cohort A), the study will proceed to a multiple ascending dose (MAD) design with up to 3 sequential cohorts (Cohorts B, C, and D) to further evaluate the safety, PK, and PD of various SPROO1 dosing regimens and to identify an optimal dose regimen. […]
• 1. […] To assess the efficacy of Compound 1 in subjects with classic CAH as measured by percent and absolute change in 17-OHP compared to baseline.

[5] = 50 mg, 50 mg single oral dose, fed, geometric mean
[6] = 150 mg, 150 mg single oral dose, fasted, geometric mean
[7] = 150 mg, 150 mg single oral dose, fed, geometric mean
[8] = 400 mg, 400 mg single oral dose, fed, geometric mean
[9] = 800 mg, 800 mg single oral dose, fed, geometric mean

Description (solubility) ([2]; 0.001N HCl, equilibrium pH 3.36): Insoluble
Description (solubility) ([2]; 0.01N HCl, equilibrium pH 2.06): Insoluble
Description (solubility) ([2]; 0.1N HCl, equilibrium pH 1.06): insoluble
Description (solubility) ([2]; 0.1N NaOH, equilibrium pH 11.65): Insoluble
Description (solubility) ([2]; FaSSIF, equilibrium pH 5.16): insoluble
Description (solubility) ([2]; FaSSIF, equilibrium pH 6.73): Insoluble
Description (solubility) ([2]; SGF, equilibrium pH 2.25): Insoluble
Description (solubility) ([2]; Water, equilibrium pH 7.78): insoluble
solubility at 24 h ([2]; aqueous buffer, 0.001N HCl, equilibrium pH 3.36, 24 hours at room temperature): 0.3 µg/mL (≈ 0.714 µM)
solubility at 24 h ([2]; aqueous buffer, 0.1N NaOH, equilibrium pH 11.65, 24 hours at room temperature): 0.2 µg/mL (≈ 0.476 µM)
Description (solubility) ([2]; pH 4.5 Acetate (USP), equilibrium pH 4.65): Insoluble
solubility at 24 h ([2]; pH 4.5 acetate buffer (USP), aqueous buffer, pH 4.5 Acetate (USP), equilibrium pH 4.65, 24 hours at room temperature): 0.5 µg/mL (≈ 1.19 µM)
Description (solubility) ([2]; pH 6.0 Phosphate (USP), equilibrium pH 6.08): Insoluble
solubility at 24 h ([2]; pH 6.0 phosphate buffer (USP), aqueous buffer, pH 6.0 Phosphate (USP), equilibrium pH 6.08, 24 hours at room temperature): 0.2 µg/mL (≈ 0.476 µM)
Description (solubility) ([2]; pH 7.5 Phosphate (USP), equilibrium pH 7.57): Insoluble
solubility at 24 h ([2]; pH 7.5 phosphate buffer (USP), aqueous buffer, pH 7.5 Phosphate (USP), equilibrium pH 7.57, 24 hours at room temperature): 0.6 µg/mL (≈ 1.43 µM)
solubility at 24 h ([2]; simulated gastric fluid, 0.01N HCl, equilibrium pH 2.06, 24 hours at room temperature): 0.4 µg/mL (≈ 0.952 µM)
solubility at 24 h ([2]; simulated gastric fluid, 0.1N HCl, equilibrium pH 1.06, 24 hours at room temperature): 1.8 µg/mL (≈ 4.29 µM)
solubility at 24 h ([2]; simulated gastric fluid, SGF, equilibrium pH 2.25, 24 hours at room temperature): 20.4 µg/mL (≈ 48.6 µM)
solubility at 24 h ([2]; FaSSIF, equilibrium pH 5.16, 24 hours at room temperature): 10.4 µg/mL (≈ 24.8 µM)
solubility at 24 h ([2]; FaSSIF, equilibrium pH 6.73, 24 hours at room temperature): 3.6 µg/mL (≈ 8.57 µM)
solubility at 24 h ([2]; Water, equilibrium pH 7.78, 24 hours at room temperature, n = 2): 0.3 µg/mL (≈ 0.714 µM)
CL/F ([3]; 50 mg single oral dose, fed, geometric mean): 302 L/h
CL/F ([3]; 150 mg single oral dose, fasted, geometric mean): 454 L/h
CL/F ([3]; 150 mg single oral dose, fed, geometric mean): 157 L/h
CL/F ([3]; 400 mg single oral dose, fed, geometric mean): 155 L/h
CL/F ([3]; 800 mg single oral dose, fed, geometric mean): 165 L/h
AUC0-∞ increase for every doubling of dose relative to dose proportionality ([3]; 50 to 800 mg, fed state): 1.74 times
mean AUC0-∞, fed state relative to fasted state ([3]; 150-mg single dose): approximately 3 fold
mean Cmax, fed state relative to fasted state ([3]; 150-mg single dose): ~11 fold
Cmax ([3]; 2 mg, 2 mg single oral dose, fed, geometric mean): 0.867 ng/mL
Tmax ([3]; 2 mg, 2 mg single oral dose, fed, median, read-out: Tmax): 6 h
Cmax ([3]; 10 mg, 10 mg single oral dose, fed, geometric mean): 3.01 ng/mL
Tmax ([3]; 10 mg, 10 mg single oral dose, fed, median, read-out: Tmax): 4 h
AUC(0-inf) [3, 5]: 165 ng·h/mL
Cmax [3, 5]: 19.5 ng/mL
AUC(0-t) [3, 5]: 152 ng·h/mL
Vd/F ([3]; 50 mg, 50 mg single oral dose, fed, geometric mean, read-out: VSS/F): 8080 L
Vd/F ([3]; 50 mg, 50 mg single oral dose, fed, geometric mean, read-out: VZ/F): 13500 L
half-life ([3]; 50 mg, 50 mg single oral dose, fed, geometric mean, read-out: t1/2 (converted)): 31 h
Tmax ([3]; 50 mg, 50 mg single oral dose, fed, median, read-out: Tmax): 4 h
AUC(0-inf) [3, 6]: 331 ng·h/mL
Cmax [3, 6]: 8.22 ng/mL
AUC(0-t) [3, 6]: 288 ng·h/mL
Vd/F ([3]; 150 mg, 150 mg single oral dose, fasted, geometric mean, read-out: VSS/F): 25200 L
Vd/F ([3]; 150 mg, 150 mg single oral dose, fasted, geometric mean, read-out: VZ/F): 25100 L
half-life ([3]; 150 mg, 150 mg single oral dose, fasted, geometric mean, read-out: t1/2 (converted)): 38.4 h
Tmax ([3]; 150 mg, 150 mg single oral dose, fasted, median, read-out: Tmax): 10.1 h
AUC(0-inf) [3, 7]: 956 ng·h/mL
Cmax [3, 7]: 93.4 ng/mL
AUC(0-t) [3, 7]: 891 ng·h/mL
Vd/F ([3]; 150 mg, 150 mg single oral dose, fed, geometric mean, read-out: VSS/F): 4600 L
Vd/F ([3]; 150 mg, 150 mg single oral dose, fed, geometric mean, read-out: VZ/F): 6620 L
half-life ([3]; 150 mg, 150 mg single oral dose, fed, geometric mean, read-out: t1/2 (converted)): 29.2 h
Tmax ([3]; 150 mg, 150 mg single oral dose, fed, median, read-out: Tmax): 4 h
AUC(0-inf) [3, 8]: 2580 ng·h/mL
Cmax [3, 8]: 207 ng/mL
AUC(0-t) [3, 8]: 2300 ng·h/mL
Vd/F ([3]; 400 mg, 400 mg single oral dose, fed, geometric mean, read-out: VSS/F): 6580 L
Vd/F ([3]; 400 mg, 400 mg single oral dose, fed, geometric mean, read-out: VZ/F): 9890 L
half-life ([3]; 400 mg, 400 mg single oral dose, fed, geometric mean, read-out: t1/2 (converted)): 44.2 h
Tmax ([3]; 400 mg, 400 mg single oral dose, fed, median, read-out: Tmax): 4 h
AUC(0-inf) [3, 9]: 4850 ng·h/mL
Cmax [3, 9]: 382 ng/mL
AUC(0-t) [3, 9]: 4390 ng·h/mL
Vd/F ([3]; 800 mg, 800 mg single oral dose, fed, geometric mean, read-out: VSS/F): 6820 L
Vd/F ([3]; 800 mg, 800 mg single oral dose, fed, geometric mean, read-out: VZ/F): 9970 L
half-life ([3]; 800 mg, 800 mg single oral dose, fed, geometric mean, read-out: t1/2 (converted)): 41.9 h
Tmax ([3]; 800 mg, 800 mg single oral dose, fed, median, read-out: Tmax): 6 h
half-life ([3]; after a single PO dose (fed and fasted state), across dose levels, read-out: Mean half-life (t1/2)): 31 to 44 h
Tmax ([3]; single oral doses 2-800 mg, fed state, read-out: median time to reach maximum plasma concentration (Tmax)): 4 to 6 h
Structure (SMILES): CCC(CC)c1cc(C)nc2c(-c3sc(N4CCOCC4)nc3Cl)c(C)nn12 [Compound 1, 4-(4-chloro-5-(2,5-dimethyl-7-(pentan-3-yl)pyrazolo[1,5-a]pyrimidin-3-yl)thiazol-2-yl)morpholine]
tolerability ([1]; Study 1, single oral doses up to 800 mg): well-tolerated
tolerability ([1]; Study 2, multiple doses up to 200 mg): generally well tolerated
tolerability [4]: generally well-tolerated
